Experimental findings from ChEMBL document CHEMBL3098069, “Azide-alkyne cycloaddition affording enzymatically tunable bisubstrate based inhibitors of histone acetyltransferase PCAF” (Bioorg Med Chem Lett, 2014) are described below.

The structures appear in SMILES notation. Activity calls are given as the source filed them. The rule behind the calls is not given here. Square brackets hold non-standard residues; d marks the D form. Peptide text beside a SMILES is read from it. Lys(N3) = [N-]=[N+]=NCCCC[C@H](N)C(=O)O; pS = N[C@@H](COP(=O)(O)O)C(=O)O

Series [1] deals with T1, Histone acetyltransferase KAT2B (Homo sapiens, UniProt Q92831). The series can be described thus: Inhibition of PCAF (unknown origin) using histone H3 derived peptide as substrate at 10^-6 to 10^-3 M after 20 mins by fluorescence assay.
Target sequence in this assay (Q92831 whole entry, looked up): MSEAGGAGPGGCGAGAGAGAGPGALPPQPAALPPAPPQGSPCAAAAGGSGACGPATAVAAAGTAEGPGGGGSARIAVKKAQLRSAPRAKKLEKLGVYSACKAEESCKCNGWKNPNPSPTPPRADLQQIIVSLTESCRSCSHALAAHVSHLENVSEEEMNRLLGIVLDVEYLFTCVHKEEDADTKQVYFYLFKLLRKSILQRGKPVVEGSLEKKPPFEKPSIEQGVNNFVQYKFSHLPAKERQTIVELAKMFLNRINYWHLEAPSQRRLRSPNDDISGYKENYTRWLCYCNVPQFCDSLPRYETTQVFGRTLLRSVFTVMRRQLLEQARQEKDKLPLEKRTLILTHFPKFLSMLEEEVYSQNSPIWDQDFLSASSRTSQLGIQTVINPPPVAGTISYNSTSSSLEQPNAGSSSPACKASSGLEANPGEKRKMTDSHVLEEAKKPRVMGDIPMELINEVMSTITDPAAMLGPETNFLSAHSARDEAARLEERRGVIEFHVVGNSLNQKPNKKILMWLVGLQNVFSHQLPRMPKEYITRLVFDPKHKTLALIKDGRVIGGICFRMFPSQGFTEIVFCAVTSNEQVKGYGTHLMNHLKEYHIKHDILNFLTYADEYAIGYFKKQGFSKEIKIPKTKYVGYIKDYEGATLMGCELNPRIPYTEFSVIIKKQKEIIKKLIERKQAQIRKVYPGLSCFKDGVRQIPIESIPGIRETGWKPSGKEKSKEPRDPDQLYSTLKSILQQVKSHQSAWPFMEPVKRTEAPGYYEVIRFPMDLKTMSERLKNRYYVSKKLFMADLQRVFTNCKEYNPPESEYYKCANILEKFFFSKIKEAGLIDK
Series [2] concerns the target T1, Histone acetyltransferase KAT2B. Nature of the series: Competitive inhibition of PCAF (unknown origin) using histone H3 derived peptide as substrate after 20 mins by fluorescence assay.
Target sequence in this assay (Q92831 whole entry): as the sequence (Q92831 whole entry, looked up) above
A short description of series [3]: Drug degradation in NEB buffer at 1 mg after 10 to 120 mins by RP-HPLC analysis. The class given is physicochemical.
Series [4] can be described thus: Drug degradation in NEB buffer assessed as Protein phosphatase 1 (unknown origin)-mediated H3-Ser-CoA formation at 1 mg after 30 mins by RP-HPLC analysis. The class given is ADME, Homo sapiens. To be noted: 0.5 h.
The target in series [5] is T1, Histone acetyltransferase KAT2B. Nature of the series: Inhibition of PCAF (unknown origin) using histone H3 derived peptide as substrate after 20 mins by fluorescence assay.
Target sequence in this assay (Q92831 whole entry): as the sequence (Q92831 whole entry, looked up) above
The target of series [6] is Serine/threonine-protein kinase pim-1 (Homo sapiens, UniProt P11309). Nature of the series: Drug degradation in NEB buffer assessed as PIM1 kinase (unknown origin)-mediated H3-pSer-CoA formation at 1 mg after 60 mins by RP-HPLC analysis. The class given is ADME. Particulars: 1 h.
Sequence of Serine/threonine-protein kinase pim-1 (P11309 whole entry): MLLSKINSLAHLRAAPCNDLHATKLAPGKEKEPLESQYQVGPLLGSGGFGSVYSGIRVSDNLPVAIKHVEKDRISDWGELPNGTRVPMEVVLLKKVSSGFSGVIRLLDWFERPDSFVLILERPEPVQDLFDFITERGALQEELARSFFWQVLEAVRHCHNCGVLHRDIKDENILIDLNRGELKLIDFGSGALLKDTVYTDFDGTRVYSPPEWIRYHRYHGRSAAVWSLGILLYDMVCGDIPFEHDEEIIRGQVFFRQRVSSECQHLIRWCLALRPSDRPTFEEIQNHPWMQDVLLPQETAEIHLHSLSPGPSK

As for `C#CCSCCNC(=O)CCNC(=O)[C@@H](O)C(C)(C)COP(=O)(O)OP(=O)(O)OC[C@H]1O[C@@H](n2cnc3c(N)ncnc32)[C@H](O)[C@@H]1OP(=O)(O)O`, the inhibition entry in series [1] is “inactive”.

For orientation: IC50 means the midpoint of a concentration-inhibition curve. A higher IC50 goes with lower potency. For the compound `CC(=O)N[C@@H](C)C(=O)N[C@@H](CCCNC(=N)N)C(=O)N[C@@H](CCCCN)C(=O)N[C@@H](COP(=O)(O)O)C(=O)N[C@H](C(=O)NCC(=O)NCC(=O)N[C@@H](CCCCn1cc(CSCCNC(=O)CCNC(=O)[C@@H](O)C(C)(C)COP(=O)(O)OP(=O)(O)OC[C@H]2O[C@@H](n3cnc4c(N)ncnc43)[C@H](O)[C@@H]2OP(=O)(O)O)nn1)C(=O)N[C@@H](C)C(=O)N1CCC[C@H]1C(=O)N[C@@H](CCCNC(=N)N)C(=O)N[C@@H](CCCCN)C(N)=O)[C@@H](C)O`, the IC50 came to 33 µM in series [2] and 1.7 µM in series [5]. The Stability result in series [3] was “Unstable”. Also, in series [4], the Drug degradation entry is reported as “Active”.

Take `CC(=O)N[C@@H](C)C(=O)N[C@@H](CCCNC(=N)N)C(=O)N[C@@H](CCCCN)C(=O)N[C@@H](COP(=O)(O)O)C(=O)N[C@H](C(=O)NCC(=O)NCC(=O)N[C@@H](CCCCN=[N+]=[N-])C(=O)N[C@@H](C)C(=O)N1CCC[C@H]1C(=O)N[C@@H](CCCNC(=N)N)C(=O)N[C@@H](CCCCN)C(N)=O)[C@@H](C)O` (Ac-ARK[pS]TGG[Lys(N3)]APRK-NH2): in series [1], the inhibition entry is “inactive”.

As for `CC(=O)N[C@@H](C)C(=O)N[C@@H](CCCNC(=N)N)C(=O)N[C@@H](CCCCN)C(=O)N[C@@H](CO)C(=O)N[C@H](C(=O)NCC(=O)NCC(=O)N[C@@H](CCCCN=[N+]=[N-])C(=O)N[C@@H](C)C(=O)N1CCC[C@H]1C(=O)N[C@@H](CCCNC(=N)N)C(=O)N[C@@H](CCCCN)C(N)=O)[C@@H](C)O` (Ac-ARKSTGG[Lys(N3)]APRK-NH2), in series [1], the inhibition entry was “inactive”.

As for `CC(=O)N[C@@H](C)C(=O)N[C@@H](CCCNC(=N)N)C(=O)N[C@@H](CCCCN)C(=O)N[C@@H](CO)C(=O)N[C@H](C(=O)NCC(=O)NCC(=O)N[C@@H](CCCCn1cc(CSCCNC(=O)CCNC(=O)[C@@H](O)C(C)(C)COP(=O)(O)OP(=O)(O)OC[C@H]2O[C@@H](n3cnc4c(N)ncnc43)[C@H](O)[C@@H]2OP(=O)(O)O)nn1)C(=O)N[C@@H](C)C(=O)N1CCC[C@H]1C(=O)N[C@@H](CCCNC(=N)N)C(=O)N[C@@H](CCCCN)C(N)=O)[C@@H](C)O`, the half-inhibitory concentration (IC50) is 117 µM in series [2] and 2.8 µM in series [5]. In addition, the Stability entry in series [3] is given as “Unstable”. Moreover, the Drug degradation result in series [6] is given as “Active”.
